Measurements reported in PubChem BioAssay AID330 (DTP/NCI, 2004).
Where “and” joins values, the source holds several entries; their conditions need not be identical. Equal entries are not always repeated. Inconclusive results and toxic doses are left out. Rule for the calls: active = survival T/C of 150% or more; inactive = T/C below 125% in these data.

System: P388 leukemia ip, CD2F1 mice, survival T/C
Assay: NCI In Vivo Anticancer Drug Screen. Data for tumor model P388 Leukemia (intraperitoneal) in CD2F1 (CDF1) mice
Conditions: endpoint: median survival time, higher = longer survival
Procedure, shortened: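 Mice carrying the transplanted tumor received test compound or vehicle. Survival was recorded in each group, and the value is the treated-group measurement divided by that of the vehicle-treated control group.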

[1] = dose: 50.0 mg/kg/injection, schedule: Q04DX003 (ip), vehicle: saline with Tween-80
[2] = dose: 100.0 mg/kg/injection, schedule: Q04DX003 (ip), vehicle: saline with Tween-80
[3] = dose: 200.0 mg/kg/injection, schedule: Q04DX003 (ip), vehicle: saline with Tween-80
[4] = dose: 50.0 mg/kg/injection, schedule: Q01DX005 (ip), vehicle: saline with Tween-80
[5] = dose: 100.0 mg/kg/injection, schedule: Q01DX005 (ip), vehicle: saline with Tween-80
[6] = dose: 200.0 mg/kg/injection, schedule: Q01DX005 (ip), vehicle: saline with Tween-80
[7] = dose: 50.0 mg/kg/injection, schedule: Q01DX005 (ip), vehicle: Klucel (hydroxypropylcellulose) (HPC)
[8] = dose: 100.0 mg/kg/injection, schedule: Q01DX005 (ip), vehicle: Klucel (hydroxypropylcellulose) (HPC)
[9] = dose: 200.0 mg/kg/injection, schedule: Q01DX005 (ip), vehicle: Klucel (hydroxypropylcellulose) (HPC)
[10] = dose: 25.0 mg/kg/injection, schedule: Q04DX003 (ip), vehicle: saline with Tween-80
[11] = dose: 60.0 mg/kg/injection, schedule: Q01DX005 (ip), vehicle: saline with Tween-80
[12] = dose: 120.0 mg/kg/injection, schedule: Q01DX005 (ip), vehicle: saline with Tween-80
[13] = dose: 240.0 mg/kg/injection, schedule: Q01DX005 (ip), vehicle: saline with Tween-80
[14] = dose: 100.0 mg/kg/injection, schedule: Q01DX009 (ip), vehicle: saline
[15] = dose: 200.0 mg/kg/injection, schedule: Q01DX009 (ip), vehicle: saline

Measured: T/C

O=C1OCC2C(=O)OCC12 (stereo not drawn)
inactive: dose: 4.0 mg/kg/injection, schedule: Q01DX009 (ip), vehicle: saline with Tween-80 113 % of control and 87 % of control | dose: 8.0 mg/kg/injection, schedule: Q01DX009 (ip), vehicle: saline with Tween-80 108 % of control and 109 % of control and 96 % of control | dose: 16.0 mg/kg/injection, schedule: Q01DX009 (ip), vehicle: saline with Tween-80 100 % of control and 109 % of control and 118 % of control | dose: 32.0 mg/kg/injection, schedule: Q01DX009 (ip), vehicle: saline with Tween-80 104 % of control and 124 % of control and 95 % of control | [1] 99 % of control | dose: 64.0 mg/kg/injection, schedule: Q01DX009 (ip), vehicle: saline with Tween-80 100 % of control and 109 % of control and 124 % of control | [2] 102 % of control | dose: 128.0 mg/kg/injection, schedule: Q01DX009 (ip), vehicle: saline with Tween-80 113 % of control | [3] 105 % of control | dose: 400.0 mg/kg/injection, schedule: Q04DX003 (ip), vehicle: saline with Tween-80 99 % of control

O=C1C=CC(=O)C2=C1CCCC2
inactive: dose: 2.0 mg/kg/injection, schedule: Q01DX009 (ip), vehicle: saline with Tween-80 100 % of control | dose: 2.9 mg/kg/injection, schedule: Q01DX009 (ip), vehicle: saline with Tween-80 100 % of control | dose: 3.12 mg/kg/injection, schedule: Q01DX009 (ip), vehicle: saline with Tween-80 100 % of control | dose: 4.5 mg/kg/injection, schedule: Q01DX009 (ip), vehicle: saline with Tween-80 100 % of control | dose: 6.25 mg/kg/injection, schedule: Q01DX009 (ip), vehicle: saline with Tween-80 100 % of control | dose: 6.5 mg/kg/injection, schedule: Q01DX009 (ip), vehicle: saline with Tween-80 100 % of control | dose: 12.5 mg/kg/injection, schedule: Q01DX009 (ip), vehicle: saline with Tween-80 102 % of control

CCOC(=O)c1n[nH]c(C)c1C/C(=N/O)c1ccccc1
inactive: [4] 103 % of control | [5] 92 % of control | [6] 92 % of control

CCOC(=O)C1=C(C)/C(=C/c2[n-]c(Cl)c(C)c2C(=O)OCC)N=C1C.CCOC(=O)C1=C(C)/C(=C/c2[n-]c(Cl)c(C)c2C(=O)OCC)N=C1C.[Co+3]
inactive: [7] 88 % of control | [8] 98 % of control | [9] 108 % of control

Fc1ccc(C=NC23CC4CC(CC(C4)C2)C3)cc1
inactive: dose: 50.0 mg/kg/injection, schedule: Q01DX009 (ip), vehicle: saline with Tween-80 93 % of control | dose: 100.0 mg/kg/injection, schedule: Q01DX009 (ip), vehicle: saline with Tween-80 91 % of control | dose: 200.0 mg/kg/injection, schedule: Q01DX009 (ip), vehicle: saline with Tween-80 97 % of control

C=C1C(=O)OC2C1C(OC(=O)/C(C)=C\C)CC1(CO1)C1C(O)C=C(C)C21O (stereo not drawn)
inactive: [10] 112 % of control | [1] 113 % of control

O=C1c2c(O)ccc(O)c2C(=O)c2c(NCCCCCO)ccc(NCCCCCO)c21
inactive: dose: 20.0 mg/kg/injection, schedule: Q01DX009 (ip), vehicle: Klucel (hydroxypropylcellulose) (HPC) 94 % of control | dose: 40.0 mg/kg/injection, schedule: Q01DX009 (ip), vehicle: Klucel (hydroxypropylcellulose) (HPC) 89 % of control | dose: 80.0 mg/kg/injection, schedule: Q01DX009 (ip), vehicle: Klucel (hydroxypropylcellulose) (HPC) 93 % of control | dose: 160.0 mg/kg/injection, schedule: Q01DX009 (ip), vehicle: Klucel (hydroxypropylcellulose) (HPC) 93 % of control | dose: 320.0 mg/kg/injection, schedule: Q01DX009 (ip), vehicle: Klucel (hydroxypropylcellulose) (HPC) 111 % of control

Cc1ccc(N=NC2=C3Sc4ccccc4N=C2N(c2ccc(Br)cc2)C(=S)N3c2ccc(Cl)cc2)cc1
inactive: [4] 102 % of control | [5] 90 % of control | [6] 88 % of control

CC(=O)Nc1ccc(S(=O)(=O)N/N=C/c2cccc([N+](=O)[O-])c2O)cc1
inactive: [11] 104 % of control | [12] 104 % of control | [13] 103 % of control

CCOC(=O)C1=CNN=CC12C(=O)NC(=Nc1ccccc1)N2c1ccccc1 (stereo not drawn)
inactive: dose: 100.0 mg/kg/injection, schedule: Q04DX002 (ip), vehicle: saline with Tween-80 93 % of control | dose: 200.0 mg/kg/injection, schedule: Q04DX002 (ip), vehicle: saline with Tween-80 104 % of control | dose: 400.0 mg/kg/injection, schedule: Q04DX002 (ip), vehicle: saline with Tween-80 95 % of control

O=C(O)CN(CC(=O)O)Cc1cc(=O)[nH]c(=O)[nH]1
inactive: dose: 50.0 mg/kg/injection, schedule: Q01DX009 (ip), vehicle: saline 91 % of control | [14] 95 % of control | [15] 97 % of control

O=C1SC/C(=N\N=C2/CSC(=O)N2Cc2ccccc2)N1Cc1ccccc1
inactive: [7] 87 % of control | [8] 93 % of control | [9] 88 % of control

CN1[C@@H]2CC[C@H]1CC(O)(c1ccccc1)C2 (stereo partly drawn)
inactive: dose: 12.5 mg/kg/injection, schedule: Q01DX005 (ip), vehicle: saline 94 % of control | dose: 25.0 mg/kg/injection, schedule: Q01DX005 (ip), vehicle: saline 96 % of control | [4] 99 % of control | dose: 50.0 mg/kg/injection, schedule: Q01DX005 (ip), vehicle: saline 92 % of control

CN1C(=O)C=CC1=O
inactive: dose: 0.5 mg/kg/injection, schedule: Q01DX009 (ip), vehicle: saline 96 % of control | dose: 1.0 mg/kg/injection, schedule: Q01DX009 (ip), vehicle: saline 103 % of control | dose: 2.0 mg/kg/injection, schedule: Q01DX009 (ip), vehicle: saline 100 % of control | dose: 4.0 mg/kg/injection, schedule: Q01DX009 (ip), vehicle: saline 101 % of control

OCC1CC(O)CN2CCc3c([nH]c4ccccc34)C2C1 (stereo not drawn)
inactive: dose: 12.5 mg/kg/injection, schedule: Q01DX005 (ip), vehicle: Klucel (hydroxypropylcellulose) (HPC) 99 % of control | dose: 25.0 mg/kg/injection, schedule: Q01DX005 (ip), vehicle: Klucel (hydroxypropylcellulose) (HPC) 99 % of control | [7] 101 % of control

Cc1ccc(S(=O)(=O)Sc2nnnn2-c2ccccc2)cc1
inactive: dose: 50.0 mg/kg/injection, schedule: Q01DX009 (ip), vehicle: Klucel (hydroxypropylcellulose) (HPC) 97 % of control | dose: 100.0 mg/kg/injection, schedule: Q01DX009 (ip), vehicle: Klucel (hydroxypropylcellulose) (HPC) 103 % of control | dose: 200.0 mg/kg/injection, schedule: Q01DX009 (ip), vehicle: Klucel (hydroxypropylcellulose) (HPC) 97 % of control

COCON=C(C)C
inactive: dose: 100.0 mg/kg/injection, schedule: Q01DX001 (ip), vehicle: saline 100 % of control | dose: 200.0 mg/kg/injection, schedule: Q01DX001 (ip), vehicle: saline 99 % of control | dose: 400.0 mg/kg/injection, schedule: Q01DX001 (ip), vehicle: saline 98 % of control

COC(=O)c1cc2c(cc1/C=C/C=O)OCO2
inactive: [11] 100 % of control | [12] 109 % of control | [13] 109 % of control

CC(=O)OCc1ccc(O)c(C=O)c1
inactive: dose: 12.5 mg/kg/injection, schedule: Q01DX005 (ip), vehicle: saline with Tween-80 118 % of control | [4] 113 % of control

O=C(CC(=NCC(O)CN=C(CC(=O)c1ccccc1)c1ccccc1)c1ccccc1)c1ccccc1.[Ni] (stereo not drawn)
inactive: [10] 94 % of control | [1] 94 % of control | [2] 87 % of control | [3] 86 % of control

Cn1cnc([N+](=O)[O-])c1Sc1ncn[nH]1
inactive: dose: 12.5 mg/kg/injection, schedule: Q01DX009 (ip), vehicle: saline 106 % of control | dose: 25.0 mg/kg/injection, schedule: Q01DX009 (ip), vehicle: saline 122 % of control | [14] 122 % of control | [15] 113 % of control

Nc1nccc(NCCCCCCNc2ccnc(N)n2)n1
inactive: dose: 12.5 mg/kg/injection, schedule: Q04DX002 (ip), vehicle: saline 104 % of control and 108 % of control | dose: 25.0 mg/kg/injection, schedule: Q04DX002 (ip), vehicle: saline 106 % of control and 114 % of control | dose: 50.0 mg/kg/injection, schedule: Q04DX002 (ip), vehicle: saline 105 % of control and 114 % of control | dose: 100.0 mg/kg/injection, schedule: Q04DX002 (ip), vehicle: saline 114 % of control and 119 % of control | dose: 200.0 mg/kg/injection, schedule: Q04DX002 (ip), vehicle: saline 116 % of control and 123 % of control
